From patent publication US6586475B1, “β-amyloid protein production/secretion inhibitors” (Takeda Chemical Industries, Ltd., priority 1998, dated 2003)

Columns and labels:
Penetration in brain = conditions: in vivo
amyloid-β protein Aβ1-42 = experiment: Inhibition of production and/or secretion of Aβ1-42 in IMR-32 cells (EIA of supernatant); assay type: cell-based; conditions: test compound 10 μM; human neuroblastoma IMR-32 cells, 24 hours; percentage relative to the control
Method: (§1) Compounds of the present invention were tested for an inhibitory activity of the production and/or secretion of amyloid-β protein (references: Science, 264, 1336 (1994) and Biochemistry, 34, 10272 (1995)).
(§2) Human neuroblastoma IMR-32 cells: purchased from American Type Culture Center.
(§3) Standard Aβ1-40 and Aβ1-42: purchased from Bachem Co.
(§4) IMR-32 cells were cultivated in a flask (Falcon, 750 ml) containing 10% FCS/DMEM medium, in an atmosphere of 10% CO2/90% air, at 37° C. to be in confluence. The cultured cells were seeded into a 48-well plate in a density of 2.5×10^5 cells/well, and incubated therein for 3 days under the same conditions as above. Then, the culture medium was removed through suction. […]
(§5) BAN-50 antibody or BNT-77 antibody was used as the primary antibody. […] To determined the Aβ1-42, BC-05 was used as the secondary antibody. […]
(§6) The plate was washed three times with PBS, and 100 μl of an HRP-labeled secondary antibody (BA-27 antibody or BC-o5 antibody labeled with HRP: horseradis peroxidase) as dissolved in a buffer for secondary reaction (20 mM phosphate buffer, pH 7.0; 400 mM NaCl; 2 mM EDTA; 1% BSA) was added thereto. […] Then, using a plate reader (MTP-32 Microplate Reader, by Corona Co.), the sample on the plate was subjected to calorimetric determination (at 450 nm). […]

amyloid-β protein Aβ1-40 = experiment: Inhibition of production and/or secretion of Aβ1-40 in IMR-32 cells (EIA of supernatant); assay type: cell-based; conditions: test compound 10 μM; human neuroblastoma IMR-32 cells, 24 hours; percentage relative to the control
Method: as §1, §2, §3, §4, §5, §6

Compound	melting point	other results
CCCN(CCC)CCc1ccc(OCc2ccc3ccccc3c2)cc1.Cl	113 to 115 °C	
CCCN(CCC)CCc1ccc(OCc2ccc(-c3ccccc3)cc2)cc1.Cl	149 to 150 °C	
CCCN(CCC)CCc1ccccc1OCc1ccc2ccccc2c1.Cl	146 to 147 °C	
CCCN(CCC)CCc1cccc(OCc2ccc(-c3ccccc3)cc2)c1.Cl	108 to 110 °C	
O=C(NCCN1CCCCC1)c1ccc(OCc2ccc(-c3ccccc3)cc2)cc1 [Example 8, 4-(4-Biphenylylmethoxy)-N-(2-piperidinoethyl)benzamide]		penetration in brain (Penetration in brain): excellent penetration in brain; Aβ1-42 (%) (amyloid-β protein Aβ1-42): 63%; Aβ1-40 (%) (amyloid-β protein Aβ1-40): 39%
O=C(NCCN1CCCCC1)c1ccc(NC(=O)c2ccc(-c3ccccc3)cc2)cc1 [Example 26, N-[4-{[2-(Piperidinoethyl)amino]carbonyl}phenyl](4-biphenylyl)carboxamide]	247 to 252 °C (dec.)	
O=C(NCCN1CCCC1)c1ccc(NC(=O)c2ccc(-c3ccccc3)cc2)cc1 [Example 27]	241 to 245 °C (dec.)	

Second part, led by results:

melting point	Compound	other results
122 to 123 °C	CCCN(CCC)CCc1ccc(OCc2ccc(Cl)cc2Cl)cc1.Cl	
115 to 116 °C	CCCN(CCC)CCc1cccc(OCc2ccc3ccccc3c2)c1.Cl	
76 to 78 °C	CCCN(CCC)CCc1cccc(OCc2ccc(Cl)cc2Cl)c1.Cl	
140 to 142 °C	CCCN(CCC)CCc1cccc(OCc2cccc3ccccc23)c1.Cl	
